Results as given in patent publication US20230040770A1, “HETEROCYCLIC COMPOUND AND USE THEREOF” (TAKEDA PHARMACEUTICAL COMPANY LIMITED, priority 2019, published 2023).

Molecular target: T1, human orexin type 2 receptor (Homo sapiens, UniProt O43614)
T1 construct: expressed in transfected cells
T1 sequence (O43614 1-444): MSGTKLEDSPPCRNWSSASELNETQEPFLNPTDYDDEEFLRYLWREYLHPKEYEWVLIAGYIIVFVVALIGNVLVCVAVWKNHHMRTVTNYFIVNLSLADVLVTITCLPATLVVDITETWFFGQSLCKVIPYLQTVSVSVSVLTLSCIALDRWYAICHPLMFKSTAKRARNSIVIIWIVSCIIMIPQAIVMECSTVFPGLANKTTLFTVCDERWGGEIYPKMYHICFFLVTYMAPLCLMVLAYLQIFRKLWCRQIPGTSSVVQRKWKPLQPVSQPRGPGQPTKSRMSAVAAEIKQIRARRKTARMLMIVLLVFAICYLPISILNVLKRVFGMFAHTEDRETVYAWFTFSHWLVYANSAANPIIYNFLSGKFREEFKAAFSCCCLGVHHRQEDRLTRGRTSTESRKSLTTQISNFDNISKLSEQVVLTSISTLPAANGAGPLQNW
Assay: Measurement of orexin type 2 receptor agonist activity (calcium indicator fluorescence, CHO cells forcibly expressing human OX2 receptor)
Type: cell-based
Settings: compound at 3 μM; 0% = DMSO, 100% = orexin A (human) 10 nM
Method in brief: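 Agonist response normalised between vehicle (0%) and orexin A at 10 nM final (100%), from kinetic Fluo-4 calcium signals recorded for about 2 min after compound addition. Cells: stable human OX2R CHO clone, dye-loaded 30 min at 37 °C plus 30 min at room temperature.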

| SMILES | OX2R agonist activity (3 μM, %) [%] |
| --- | --- |
| CCS(=O)(=O)N[C@H]1[C@@H](F)CN(C(=O)C2(O)CCC2)[C@H]1Cc1cccc(-c2cccc(C)c2)c1F [Example 536, N-[(2S,3R,4S)-4-fluoro-2-[(2-fluoro-3′-methyl[1,1′-biphenyl]-3-yl)methyl]-1-(1-hydroxycyclobutane-1-carbonyl)pyrrolidin-3-yl]ethanesulfonamide] | 98 |
| Cc1cccc(-c2cccc(C[C@H]3[C@@H](NS(=O)(=O)N(C)C)C(F)(F)CN3C(=O)[C@H]3CCO3)c2F)c1F [Example 539, N′-{(2S,3R)-2-[(2,2′-difluoro-3′-methyl[1,1′-biphenyl]-3-yl)methyl]-4,4-difluoro-1-[(2R)-oxetane-2-carbonyl]pyrrolidin-3-yl}-N,N-dimethylsulfuric diamide] | 101 |
| CCS(=O)(=O)N[C@@H]1[C@H](Cc2cccc(-c3cccc(OC)c3)c2F)N(C(=O)C2(O)CCC2)CC1(F)F [Example 513, N-[(2S,3R)-4,4-difluoro-2-[(2-fluoro-3′-methoxy[1,1′-biphenyl]-3-yl)methyl]-1-(1-hydroxycyclobutane-1-carbonyl)pyrrolidin-3-yl]ethanesulfonamide] | 97 |
| CCS(=O)(=O)N[C@@H]1[C@H](Cc2cccc(-c3cc(F)c(F)c(F)c3)c2F)N(C(=O)C2CCO2)CC1(F)F (stereo partly drawn) [Example 473, N-{(2S,3R)-4,4-difluoro-1-(oxetane-2-carbonyl)-2-[(2,3′,4′,5′-tetrafluoro[1,1′-biphenyl]-3-yl)methyl]pyrrolidin-3-yl}ethanesulfonamide] | 97 |
| Cc1cc(F)cc(-c2cccc(C[C@H]3[C@@H](NS(=O)(=O)N(C)C)C(F)(F)CN3C(=O)N(C)C)c2F)c1 [Example 526, (2S,3R)-2-[(2,3′-difluoro-5′-methyl[1,1′-biphenyl]-3-yl)methyl]-3-[(dimethyslulfamoyl)amino]-4,4-difluoro-N,N-dimethylpyrrolidine-1-carboxamide] | 83 |
| CCS(=O)(=O)N[C@@H]1[C@H](Cc2cccc(-c3ccc(F)c(C)c3)c2F)N(C(=O)C(C)(C)O)CC1(F)F [Example 466, N-[(2S,3R)-2-[(2,4′-difluoro-3′-methyl[1,1′-biphenyl]-3-yl)methyl]-4,4-difluoro-1-(2-hydroxy-2-methylpropanoyl)pyrrolidin-3-yl]ethanesulfonamide] | 103 |
| CCS(=O)(=O)N[C@@H]1[C@H](Cc2cccc(-c3cc(F)ccc3F)c2F)N(C(=O)C(C)C)CC1(F)F [Example 147, N-{(2S,3R)-4,4-difluoro-1-(2-methylpropanoyl)-2-[(2,2′,5′-trifluoro[1,1′-biphenyl]-3-yl)methyl]pyrrolidin-3-yl}ethanesulfonamide] | 91 |
| CCS(=O)(=O)N[C@H]1[C@@H](F)CN(C(=O)C(C)(C)O)[C@H]1Cc1cccc(-c2cccc(F)c2)c1F [Example 207, N-[(2S,3R,4S)-2-[(2,3′-difluoro[1,1′-biphenyl]-3-yl)methyl]-4-fluoro-1-(2-hydroxy-2-methylpropanoyl)pyrrolidin-3-yl]ethanesulfonamide] | 88 |
| CS(=O)(=O)N[C@H]1[C@@H](F)CN(C(=O)C23CC(C2)C3)[C@H]1Cc1cccc(-c2cccc(F)c2)c1F [Example 231, N-{(2S,3R,4S)-1-(bicyclo[1.1.1]pentane-1-carbonyl)-2-[(2,3′-difluoro[1,1′-biphenyl]-3-yl)methyl]-4-fluoropyrrolidin-3-yl}methanesulfonamide] | 95 |
| Cc1cccc(-c2cccc(C[C@H]3[C@@H](NS(=O)(=O)N(C)C)C(F)(F)CN3C(=O)C3CCO3)c2F)c1 (stereo partly drawn) [Example 434, N′-[(2S,3R)-4,4-difluoro-2-[(2-fluoro-3′-methyl[1,1′-biphenyl]-3-yl)methyl]-1-(oxetane-2-carbonyl)pyrrolidin-3-yl]-N,N-dimethylsulfuric diamide] | 101 |
| CS(=O)(=O)N[C@@H]1[C@H](Cc2cccc(-c3cc(F)cc(F)c3)c2F)N(C(=O)[C@H]2C[C@H](F)C2)CC1(F)F [Example 431, N-{(2S,3R)-4,4-difluoro-1-((1r,3S)-3-fluorocyclobutane-1-carbonyl)-2-[(2,3′,5′-trifluoro[1,1′-biphenyl]-3-yl)methyl]pyrrolidin-3-yl}methanesulfonamide] | 106 |
| CCS(=O)(=O)N[C@H]1[C@@H](F)CN(C(=O)C2CCO2)[C@H]1Cc1cccc(-c2cc(C)cc(F)c2)c1F (stereo partly drawn) [Example 501, N-[(2S,3R,4S)-2-[(2,3′-difluoro-5′-methyl[1,1′-biphenyl]-3-yl)methyl]-4-fluoro-1-(oxetane-2-carbonyl)pyrrolidin-3-yl]ethanesulfonamide] | 96 |
| CCS(=O)(=O)N[C@H]1[C@@H](F)CN(C(=O)C2CCO2)[C@H]1Cc1cccc(-c2cccc(F)c2)c1F (stereo partly drawn) [Example 217, N-[(2S,3R,4S)-2-[(2,3′-difluoro[1,1′-biphenyl]-3-yl)methyl]-4-fluoro-1-(oxetane-2-carbonyl)pyrrolidin-3-yl]ethanesulfonamide] | 96 |
| Cc1cccc(-c2cccc(C[C@H]3[C@@H](NS(=O)(=O)C4CC4)C(F)(F)CN3C(=O)N3CCC3)c2F)c1F [Example 527, N-{(2S,3R)-1-(azetidine-1-carbonyl)-2-[(2,2′-difluoro-3′-methyl[1,1′-biphenyl]-3-yl)methyl]-4,4-difluoropyrrolidin-3-yl}cyclopropanesulfonamide] | 95 |
| Cc1cccc(-c2cccc(C[C@H]3[C@@H](NS(=O)(=O)C4CC4)[C@@H](F)CN3C(=O)C3CCO3)c2F)c1 (stereo partly drawn) [Example 484, N-[(2S,3R,4S)-4-fluoro-2-[(2-fluoro-3′-methyl[1,1′-biphenyl]-3-yl)methyl]-1-(oxetane-2-carbonyl)pyrrolidin-3-yl]cyclopropanesulfonamide] | 90 |
| CS(=O)(=O)N[C@@H]1[C@H](Cc2cccc(-c3ccccc3)c2F)N(C(=O)C23CC(C2)C3)CC1(F)F [Example 78, N-{(2S,3R)-1-(bicyclo[1.1.1]pentane-1-carbonyl)-4,4-difluoro-2-[(2-fluoro[1,1′-biphenyl]-3-yl)methyl]pyrrolidin-3-yl}methanesulfonamide] | 93 |
| CC(C)(O)C(=O)N1C[C@H](F)[C@H](NS(C)(=O)=O)[C@@H]1Cc1cccc(-c2cccc(Cl)c2F)c1F [Example 389, N-[(2S,3R,4S)-2-[(3′-chloro-2,2′-difluoro[1,1′-biphenyl]-3-yl)methyl]-4-fluoro-1-(2-hydroxy-2-methylpropanoyl)pyrrolidin-3-yl]methanesulfonamide] | 89 |
| CCS(=O)(=O)N[C@@H]1[C@H](Cc2cccc(-c3cccc(C(F)F)c3)c2F)N(C(=O)C2CCO2)CC1(F)F (stereo partly drawn) [Example 504, N-[(S,3R)-2-{[3′-(difluoromethyl)-2-fluoro[1,1′-biphenyl]-3-yl]methyl}-4,4-difluoro-1-(oxetane-2-carbonyl)pyrrolidin-3-yl]ethanesulfonamide] | 90 |
| CCS(=O)(=O)N[C@@H]1[C@H](Cc2cccc(-c3cccc(F)c3F)c2F)N(C(=O)C2CC2)CC1(F)F [Example 204, N-{(2S,3R)-1-(cyclopropanecarbonyl)-4,4-difluoro-2-[(2,2′,3′-trifluoro[1,1′-biphenyl]-3-yl)methyl]pyrrolidin-3-yl}ethanesulfonamide] | 89 |
